These results are taken from patent US20030232101A1, “Topical formulations of resorcinols and cannibinoids and methods of use” (Immugen Pharmaceuticals, Inc., priority 2002, published 2003).

The subject of the test is HIV-1 (96USHIPS7 strain). Nature of the test: HIV attachment assay in PBMCs (cell-associated p24). It counts as cell-based. As to conditions: time 0 h. On the procedure:
ELISA kits were purchased from Coulter Electronics. The assay was performed according to the manufacturer's instructions. Control curves were generated in each assay to accurately quantitate the amount of p24 antigen in each sample. For experiments using cell lysates. Fifty thousand (5×10^4) viable cells were lysed in Coulter ELISA buffer and subjected to 1 round of freeze/thawed to liberate trapped p24 and p24 detected per manufacturers instructions. HIV capsid protein (p24) was quantitated spectrophotometrically at 450 nm using a Molecular Devices Vmax plate reader using a standard curve. Final concentrations were calculated from the optical density values using the Molecular Devices Soft Max software package.
The attachment assay with PBMCs was performed as follows. Briefly, 1×10^6 PHA/IL-2 PBMCs were incubated for 0, 2, 4 and 24 hours with IMG compounds and cannabidiol in polypropylene tubes. A pre-titered amount of HIV-1 (96USHIPS7 strain, obtained from the AIDS Research and Reference Reagent Program ) was added in the presence of compound and incubated for 3 h at 37° C. After incubation the cultures were washed 3 times (400×g, 10 min, 4° C.) with media (1:25,000 dilution of input p24), the cell pellets lysed with p24 lysing buffer (Coulter) and p24 content determined by ELISA.
PBMCs pretreated with compounds for 0, 2, 4, and 24 were incubated with cell-free HIV-1 for 3 h and the excess unbound HIV removed. The assessed the amount of HIV bound to the cell was then assessed by measuring cell-associated p24 content of total cell lysates.

In the case of `Cc1ccnc2c1NC(=O)c1cccnc1N2C1CC1` [Nevirapine, reference compound], where the note is “10 μM”, the “% Control” value was found to be 81.2%, the “pg p24” value turned out to be 311.7 pg and the “suppression of virus attachment” value is given as 19% suppression. Under “10 μM, listed as nevaripine”, the “suppression of virus attachment” value came to 19%.

With Dextran Sulfate [reference compound], where the note is “20 μg/ml”, the “% Control” value turned out to be 57.6%, the “pg p24” value turned out to be 221 pg and the “suppression of virus attachment” value is listed as 43.4% suppression. Moreover, the “suppression of virus attachment” value (20 μg/ml, listed as dextran sulfate) turned out to be 43.4%.
